Experimental data taken from patent US11419336B2, “Herbicidal combination” (UPL LTD, priority 2017, dated 2022).

What was measured:
[1] = tested on: weeds; conditions: saflufenacil alone; cited from earlier work
[2] = tested on: Eleucine indica; assay: Field trial, burndown weed control on grasses; type: in vivo; conditions: 15 DAA; g ai/ha: saflufenacil 140, metribuzin 1150, pendimethalin 500 alone; mixture 112 + 920 + 571
[3] = tested on: Eleucine indica; assay: Field trial, burndown weed control on grasses; type: in vivo; conditions: g ai/ha: saflufenacil 140, metribuzin 1150, pendimethalin 500 alone, mixture 140 + 1150 + 500
Procedure: (§1) Studies were conducted to compare the weed controlling activity of the combination of saflufenacil, a triazine herbicide and pendimethalin. […] Any difference between the observed and “expected” efficacy could be attributed to synergy between the compounds in the control of a broad spectrum of weeds. The expected efficacy of a combination of saflufenacil, a triazine herbicide and an pendimethalin was calculated using the well-established Colby method.
(§2) In the Colby method, the expected (or predicted) response of a combination of herbicides is calculated by taking the product of the observed response for each individual component of the combination when applied alone divided by 100 and subtracting this value from the sum of the observed response for each component when applied alone. An unexpected enhancement in efficacy of the combination is then determined by comparing the observed response of the combination to the expected (or predicted) response as calculated from the observed response of each Individual component alone. If the observed response of the combination is greater than the expected (or predicted) response, or stated conversely, if the difference between the observed and expected response is greater than zero, then the combination is said to be synergistic or unexpectedly effective. (Colby, S. R., Weeds, 1967(15), p. 20-22) The Colby method requires only a single dose of each herbicide applied alone and the mixture of both doses.
(§3) The weed control activity of the individual herbicides of the invention and their combinations were evaluated on weeds such as those belonging to Echinochloa colona, Digitaria sanguinalis, Amaranthus viridis, Commelina benghalensis, and Cyperus rotundus. The trial was carried out in Randomized Complete Block (RCB) method. Each trial was replicated four times and conducted under GEP guidelines. Application volumes were varied for each mixture. Such field trials were carried out at various locations so as to generate independent data, the locations were chosen randomly across India. Saflufenacil, metribuzin and pendimethalin were sprayed according to their recommended dosage.
(§4) The following formula was used to calculate the expected activity of mixtures containing three active ingredients, A, B and C:
(§5) A=observed efficacy of active ingredient A at the same concentration as used in the mixture.
(§6) B=observed efficacy of active ingredient B at the same concentration as used in the mixture.
(§7) C=observed efficacy of active ingredient C at the same concentration as Used in the mixture.

[4] = tested on: Echinochloa colona; assay: Field trial, burndown weed control on grasses; type: in vivo; conditions: g ai/ha: saflufenacil 140, metribuzin 1150, pendimethalin 500 alone
Procedure: as §1, §2, §3, §4, §5, §6, §7

[5] = tested on: Digitaria sanguinalis; assay: Field trial, burndown weed control on grasses; type: in vivo; conditions: g ai/ha: saflufenacil 140, metribuzin 1150, pendimethalin 500 alone
Procedure: as §1, §2, §3, §4, §5, §6, §7

[6] = tested on: Digera sp.; assay: Field trial, burndown weed control on broadleaf weeds; type: in vivo; conditions: g ai/ha: saflufenacil 140, metribuzin 1150, pendimethalin 500 alone, mixture 112 + 920 + 571
Procedure: as §1, §2, §3, §4, §5, §6, §7

[7] = tested on: Cyperus rotundus; assay: Field trial, burndown weed control on sedges; type: in vivo; conditions: g ai/ha: saflufenacil 140, metribuzin 1150, pendimethalin 500 alone, mixture 112 + 920 + 571
Procedure: Studies were conducted to compare the weed controlling activity of the combination of saflufenacil, a triazine herbicide and pendimethalin. […] Any difference between the observed and “expected” efficacy could be attributed to synergy between the compounds in the control of a broad spectrum of weeds. The expected efficacy of a combination of saflufenacil, a triazine herbicide and an pendimethalin was calculated using the well-established Colby method. […] An unexpected enhancement in efficacy of the combination is then determined by comparing the observed response of the combination to the expected (or predicted) response as calculated from the observed response of each Individual component alone. If the observed response of the combination is greater than the expected (or predicted) response, or stated conversely, if the difference between the observed and expected response is greater than zero, then the combination is said to be synergistic or unexpectedly effective. (Colby, S. R., Weeds, 1967(15), p. 20-22) The Colby method requires only a single dose of each herbicide applied alone and the mixture of both doses. The weed control activity of the individual herbicides of the invention and their combinations were evaluated on weeds such as those belonging to Echinochloa colona, Digitaria sanguinalis, Amaranthus viridis, Commelina benghalensis, and Cyperus rotundus. The trial was carried out in Randomized Complete Block (RCB) method. Each trial was replicated four times and conducted under GEP guidelines. Application volumes were varied for each mixture. Such field trials were carried out at various locations so as to generate independent data, the locations were chosen randomly across India. Saflufenacil, metribuzin and pendimethalin were sprayed according to their recommended dosage. The following formula was used to calculate the expected activity of mixtures containing three active ingredients, A, B and C: [formula] • Where A=observed efficacy of active ingredient A at the same concentration as used in the mixture. B=observed efficacy of active ingredient B at the same concentration as used in the mixture. C=observed efficacy of active ingredient C at the same concentration as Used in the mixture.

[8] = 15 DAA, mixture 112 + 920 + 571
[9] = 15 DAA, mixture 140 + 1150 + 500
[10] = Table 3, 30 DAA, mixture 140 + 1150 + 500
[11] = Table 4, 30 DAA, mixture 140 + 1150 + 500

SMILES	Efficacy in weed control beyond 30 days after treatment [1]	% Weed control Burn Down Symptoms Generation, Eleucine indica, Actual [2]	% Weed control Burn Down Symptoms Generation, Eleucine indica, Actual ([3]; 15 DAA)	% Weed control Burn Down Symptoms Generation, Eleucine indica, Actual ([3]; Table 3, 30 DAA)	% Weed control Burn Down Symptoms Generation, Eleucine indica, Actual ([3]; Table 4, 30 DAA)	% Weed control Burn Down Symptoms Generation, Echinochloa colona, Actual [4, 8]	% Weed control Burn Down Symptoms Generation, Echinochloa colona, Actual [4, 9]	% Weed control Burn Down Symptoms Generation, Echinochloa colona, Actual [4, 10]	% Weed control Burn Down Symptoms Generation, Echinochloa colona, Actual [4, 11]	% Weed control Burn Down Symptoms Generation, Digitaria sanguinalis, Actual [5, 8]	% Weed control Burn Down Symptoms Generation, Digitaria sanguinalis, Actual [5, 9]	% Weed control Burn Down Symptoms Generation, Digitaria sanguinalis, Actual [5, 10]	% Weed control Burn Down Symptoms Generation, Digitaria sanguinalis, Actual [5, 11]	% Weed control Burn Down Symptoms Generation, Digera sp. at 15 DAA, Actual [6]	% Weed control Burn Down Symptoms Generation, Digera sp. at 30 DAA, Actual [6]	% Weed control Burn Down Symptoms Generation, Cyperus rotundus at 15 DAA, Actual [7]	% Weed control Burn Down Symptoms Generation, Cyperus rotundus at 30 DAA, Actual [7]
CC(C)N(C)S(=O)(=O)NC(=O)c1cc(-n2c(=O)cc(C(F)(F)F)n(C)c2=O)c(F)cc1Cl [Saflufenacil, N′-{2-chloro-4-fluoro-5-[1,2,3,6-tetrahydro-3-methyl-2,6-dioxo-4-(trifluoromethyl)pyrimidin-1-yl]benzoyl}-N-isopropyl-N-methylsulfamide]	reduced efficacy	13.3%	13.3%	9.3%	9.3%	8.3%	8.3%	13%	13%	56.7%	56.7%	13.3%	13.3%	69.7%	68.3%	15%	20%
CCC(CC)Nc1c([N+](=O)[O-])cc(C)c(C)c1[N+](=O)[O-] [Pendimethalin, N-(1-ethylpropyl)-2,6-dinitro-3,4-xylidine]		46.7%	46.7%	45%	45%	58.3%	58.3%	53.3%	53.3%	56.7%	56.7%	50%	50%	66.7%	7.0%	31.7%	25%
CSc1nnc(C(C)(C)C)c(=O)n1N [Metribuzin, 4-amino-6-tert-butyl-4,5-dihydro-3-methylthio-1,2,4-triazin-5-one]		8.3%	8.3%	5.7%	5.7%	6.7%	6.7%	10%	10%	13.3%	13.3%	10%	10%	8.3%	8.3%	6.7%	8.3%
